Results reported in patent US20210403864A1, “METHODS AND COMPOSITIONS FOR TREATING ACTIVATED G-ALPHA Q MUTANT CANCERS OR MELANOCYTIC MALIGNANCIES” (Memorial Sloan Kettering Cancer Center, priority 2018, published 2021).
Read-outs that look alike come from different tables or passages of the source.

What was measured:
[1] = test system: RASGRP3, CRAF, MEK, ERK phosphorylation and cyclin D1 expression; assay: Western blot of Gαq downstream signaling in melan-a cells; assay type: cell-based, mouse
Experimental: The last sample for each cell line was also treated with TPA for 24 hours showing rescue of the pathway.
Samples were treated with 500 nM YM for 0, 2, 4, 8, and 24 hours with the last lane being treatment plus TPA add back.
Immunoblotting. Lysates were harvested using SDS lysis buffer (50 mM Tris-HCL, pH 6.8, 1 mM EDTA, 150 mM NaCl, 1% SDS, […]) supplemented with fresh proteinase and phosphatase inhibitors (PhosSTOP, Roche, Basel, Switzerland; Complete EDTA-Free, Roche, Basel, Switzerland) and 1% PMSF (Sigma-Aldrich, St. Louis, Mo.). Lysates were incubated on ice for 30 minutes, sonicated for 15 minutes, and then centrifuged at max speed for 10 minutes at 4° C. Protein levels were quantified using BCA protein assay (Thermo Scientific, Waltham, Mass.). NuPAGE LDS Sample Buffer (4×) was added to a final concentration of 1×. Samples were run on NuPAGE Novex 4-12% Bis-Tris protein gels (Life Technologies, Carlsbad, Calif.), transferred electrophoretically to 0.45 μm PVDF membranes (Immobilon, EMD Millipore, Burlington, Mass.), and then blocked with StartingBlock blocking buffer (Thermo Scientific, Waltham, Mass.) for 1 hour at room temperature. Primary antibodies were incubated at 4° C. overnight in StartingBlock buffer at 1:1,000 dilution, unless noted otherwise. Primary Antibodies used in the experiments described herein are provided below:
The effect of YM on Gαq downstream signaling was assayed, including RASGRP3 phosphorylation by PKC, phosphorylation of CRAF, MEK, and ERK (downstream of RAS) and cyclin D1 expression which integrates signaling to promote cell cycle progression.

[2] = test system: BRAF^V600E-expressing melan-a cells; assay: TPA-independent cell growth, CellTiter-glo 2.0; assay type: cell-based, mouse; details: 5 days, without TPA
Experimental: (§1) Data are expressed as the percentage relative light units (RLU) relative to that observed with vehicle. Error bars, s.e.m. from triplicate samples.
(§2) Cell Culture and in vitro analysis. Mutation dependent melan-a cells were generated by transducing cells with cDNAs in MSCV-PURO (retrovirus) and then selecting cells with puromycin (1 μg/ml) for two days. TPA (Sigma-Aldrich, St. Louis, Mo.) was then withdrawn from cultures. Cells with activating mutations (CYSLTR2^L129Q, GNAQ^G48V/R183Q/Q209L, KRAS^G12V, and BRAF^V600E) continued to proliferate over several passages (>2 weeks) and were then validated with qRT-PCR and immunoblots. Vector and WT controls were unable to maintain proliferation after a couple passages upon TPA withdrawal. All cells were cultured in media containing 10% FBS, L-glutamine ([…]), penicillin (100 U/ml), streptomycin (100 μg/ml). Melan-a cells provided by D. Bennett, St. George's Hospital, University of London (Johnson C P, et al., PLoS One. 12(6):1-17 (2017)), were cultured in RPMI supplemented with 200 nM TPA unless otherwise noted. HEK293T (from ATCC, Manassas, Va.) cells were cultured in DMEM-Q and UVM cells were cultured in RPMI. All cells tested negative for mycoplasma. Cell growth assays and YM dose response curves were assayed using CellTiter-glo 2.0 (Promega, Madison, Wis.) at given time points or after five days of incubation with YM and readout on a Glomax Luminometer (Promega, Madison, Wis.). IC50 values were calculated using Prism 7.0 software. Growth assays were compared to day 1 readings and dose response curves were compared to vehicle. Data shown is representative of at least three independent experiments with at least three technical replicates. Dose-response curves and growth assays were analyzed using GraphPad Prism 7.0 software.

[3] = test system: GNAQ^G48V-expressing melan-a cells; assay: TPA-independent cell growth, CellTiter-glo 2.0; assay type: cell-based, mouse; details: 5 days, without TPA
Experimental: as §1, §2

[4] = test system: GNAQ^R183Q-expressing melan-a cells; assay: TPA-independent cell growth, CellTiter-glo 2.0; assay type: cell-based, mouse; details: 5 days, without TPA
Experimental: as §1, §2

[5] = test system: KRAS^G12V-expressing melan-a cells; assay: TPA-independent cell growth, CellTiter-glo 2.0; assay type: cell-based, mouse; details: 5 days, without TPA
Experimental: as §1, §2

[6] = test system: human UVM cell lines that harbored the GNAQ^Q209L/P mutation; assay: IP1 accumulation assay in UVM cells; assay type: cell-based; details: YM treatment at 24 hours
Experimental: Cells were treated with increasing concentrations of YM for 3 hours (top) and 24 hours (bottom). Error bars, s.e.m from three biological replicates, each with three technical replicates.
IP1 Accumulation Assay. IP1 concentrations in GNAQ-transfected HEK293T cells, GNAQ-expressing melan-a cells and uveal melanoma cells was measured using a competitive homogenous time resolved fluorescence (HTRF) assay (CisBio, Bedford, Mass.). Briefly, 9,000 transiently transfected-HEK293T cells, 5,000 melan-a cells and 5,000 uveal melanoma cells were seeded in low-volume 384-well plates in 7 μL media for 24 hours prior YM-254890 treatment. […] Following incubation, cells were lysed by adding 3 μL/well of d2-labeled IP1 analogue as the fluorescence acceptor and the Terbium cryptate-labeled anti-IP1 mAb as the fluorescence donor, diluted in the kit-supplied lysis buffer. The plates were incubated overnight at RT and time-resolved fluorescence signals were read using the BioTek Synergy NEO plate reader (BioTek Instruments, Winooski, Vt.) at 620 nm and 655 nm. Results were calculated as a 665 nm/620 nm signal ratio, and IP1 concentrations were interpolated from a standard curve prepared using the supplied IP1 calibrator. […] Dose-response curves and bar graphs were analyzed using GraphPad Prism 7.0 software. […]

[7] = target: Gαq^Q209L (Homo sapiens, UniProt P50148, Q209L); details: overexpression systems, literature, cited from earlier work
Chain of Gαq^Q209L (P50148 whole entry Q209L): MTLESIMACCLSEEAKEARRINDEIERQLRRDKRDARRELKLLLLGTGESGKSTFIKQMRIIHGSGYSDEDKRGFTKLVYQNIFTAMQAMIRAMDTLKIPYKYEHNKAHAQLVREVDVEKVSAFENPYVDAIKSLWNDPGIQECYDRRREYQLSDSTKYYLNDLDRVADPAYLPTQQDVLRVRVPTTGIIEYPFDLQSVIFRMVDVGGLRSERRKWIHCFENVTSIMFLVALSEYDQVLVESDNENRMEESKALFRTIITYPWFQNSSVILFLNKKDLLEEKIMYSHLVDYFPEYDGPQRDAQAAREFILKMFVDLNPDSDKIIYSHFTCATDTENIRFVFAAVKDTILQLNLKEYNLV

Substance: YM-254890
- downstream signaling targets with TPA supplementation ([1]; 24 hours after YM treatment, plus TPA): completely rescued
- inhibition of MAPK signaling ([1]; BRAF^V600E-expressing melan-a cells, 500 nM YM): ineffective
- inhibition of downstream signaling targets (p-RASGRP3, p-CRAF, p-MEK, p-ERK, cyclin D1) ([1]; CYSLTR2^L129Q, GNAQ^G48V, GNAQ^R183Q and GNAQ^Q209L-expressing melan-a cells, 500 nM YM, 0-24 hours): inhibited
- kinetics of inhibition of downstream signaling compared to CYSLTR2^L129Q and GNAQ^G48V-expressing cells ([1]; GNAQ^Q209L-expressing melan-a cells, 500 nM YM): slower kinetics
- kinetics of inhibition of downstream signaling compared to CYSLTR2^L129Q and GNAQ^G48V-expressing cells ([1]; GNAQ^R183Q-expressing melan-a cells, 500 nM YM): slower kinetics
- inhibition of MAPK signaling ([1]; KRAS^G12V-expressing melan-a cells, 500 nM YM): ineffective
- sensitivity of TPA-independent cell growth to YM [2]: completely resistant
- sensitivity of TPA-independent cell growth to YM [3]: sub-nanomolar sensitivity
- sensitivity of TPA-independent cell growth to YM [4]: modestly less sensitive
- sensitivity of TPA-independent cell growth to YM [5]: completely resistant
- inhibition of IP1 accumulation [6]: inhibited
- inhibition of aberrant Gαq signaling downstream of Gαq^Q209L [7]: ineffective
- inhibition of aberrant Gαq signaling downstream of Gαq^Q209L ([7]; listed as YM): unable to inhibit
